SMILES strings stand for the structures.

One data set has as its system subcutaneous 4T1 tumors. The experiment in a line: Antitumor efficacy and safety in subcutaneous 4T1 tumor model. Type of data set: in vivo. The note with it: 4T1 model, iv 10.0 mg·kg^–1 PTX equivalent, five doses. The procedure:
For pharmacodynamic evaluation, female Balb/c mice (18–22 g, n = 6 per group) bearing subcutaneous 4T1 tumors (approximately 50 mm^3) received intravenous injections every other day for five doses at 10.0 mg·kg^–1 (PTX equivalent). Tumor volume and body weight were monitored daily until day 14, when tumors were excised and photographed. At study termination (day 14), major organs (heart, liver, spleen, lungs, and kidneys) were collected from these mice. The organs were fixed in 4% paraformaldehyde, dehydrated with ethanol, and cleared with xylene. Afterward, the tissues were embedded in paraffin wax and sectioned after dipping wax operation at 60 °C. The sections were then stained with hematoxylin and eosin for histological examination.

Data set [1] can be described thus: Biodistribution in 4T1 tumor-bearing mice. Format: in vivo, Balb/c mice. Particulars: iv 10.0 mg·kg^–1. On the procedure:
For plasma samples, 50 μL of plasma was mixed with 100 μL of a docetaxel acetonitrile solution (15 ng·mL^–1) for protein precipitation. The mixture was vortexed and then centrifuged at 4 °C, 17 000 rpm for 30 min. For tissue samples, mice were euthanized at specified time points, and tissues were harvested and rinsed with saline. Two kidneys, the entire heart, spleen, lung, tumor, and 150–200 mg of liver were placed in grinding tubes. Saline was added at a ratio of 1:5 (m/v), and the tissues were ground using a freezing grinder (Jingxin, China) at 4 °C. Next, 100 μL of docetaxel acetonitrile solution (15 ng·mL^–1) was added to 50 μL of the tissue homogenate. […] The supernatants for both plasma and tissue samples were analyzed by LC-MS as described below.
The concentrations of PTP and PTX in plasma and tissue samples were determined using liquid chromatography–mass spectrometry (LC-MS) with a G6470A system (Agilent, USA) equipped with a C18 column (2.1 × 100 mm, 2.7 μm, Agilent, USA). […]
Pharmacokinetic features were evaluated in Sprague–Dawley rats (200–300 g, n = 6 per group) following a single intravenous administration of PTX solution (1.0 mg·mL^–1), PTP (1.2 mg·mL^–1), or PTP@PEG (1.2 mg·mL^–1) at a dose equivalent to 3.0 mg·kg^–1 PTX. […] Biodistribution was assessed in female Balb/c mice (18–22 g; n = 6 per group) bearing subcutaneous 4T1 tumors (target volume 200–300 mm^3). […]

Another data set relates to tubulin. The experiment in a line: Isothermal titration calorimetry with tubulin. Type of data set: binding. The note with it: tubulin 180 μM titrated into 25 μM compound. On the procedure:
ITC experiments were performed using a Nano-ITC (TA Instruments, USA) with all samples degassed for 8 min prior to measurement. Experiments were conducted under stirring at 350 rpm. To account for background signals, control experiments were conducted and subtracted from the test data. The resulting heat values were analyzed using an independent model to extract thermodynamic parameters. For tubulin binding studies, solutions were prepared in PEM buffer containing 5% (v/v) DMSO. In each experiment, 400 μL of the […] was loaded into the sample cell, and 400 μL of PEM buffer with 5% (v/v) DMSO was placed in the reference cell. Tubulin solution (180 μM) was titrated into the sample cell in 25 injections of 2 μL each at 4 °C. A control titration of tubulin into PEM buffer (5% DMSO) was performed to account for dilution effects. To assess interactions between PTP and excipients, PTP dispersions (25 μM) were loaded into the sample cell, and water was used in the reference cell. PEG400 solution (6.0 mg·mL^–1) was titrated into a 2.0 mg·mL^–1 PTP dispersion, and HA (2.7 mg·mL^–1) into a 1.0 mg·mL^–1 PTP dispersion. Both titrations were performed at 25 °C with 25 injections of 2 μL each. Control experiments were performed by titrating PEG400 or HA into water to correct for nonspecific heat effects.

Data set [2] is described as follows: In vitro PTP release (transwell, PBS). Type of data set: physicochemical. Particulars: over 12 h, 5.0 mg·mL^–1 PTP. The procedure: The in vitro drug release from the PTP assemblies and PTP@HA was assessed in 1 × PBS (pH 7.4). A 0.1 mL dispersion of PTP (5.0 mg·mL^–1) or PTP@HA (equivalent to 5.0 mg·mL^–1 PTP and 20.0 mg·mL^–1 HA) in saline was added to the upper chamber of a 24-well transwell plate (#3413, Corning, USA) equipped with a 0.4 μm polycarbonate membrane (n = 3). The lower chamber contained 0.6 mL 1 × PBS. The setup was maintained at 37 °C with shaking at 100 rpm. At specified time intervals, the PBS in the lower chamber was replaced with fresh PBS. Each collected sample was mixed with 600 μL acetonitrile and vortexed for 1 min. PTP release and PTX degradation products were quantified by HPLC.

On to `CC(=O)O[C@H]1C(=O)[C@@]2(C)[C@H]([C@H](OC(=O)c3ccccc3)[C@]3(O)C[C@H](OC(=O)[C@H](OC(=O)CCP(=O)(O)O)[C@@H](NC(=O)c4ccccc4)c4ccccc4)C(C)=C1C3(C)C)[C@]1(OC(C)=O)CO[C@@H]1C[C@@H]2O` [PTP, PTX-2’–OOC-P], for which the “safety: body weight and renal histology” value with subcutaneous 4T1 tumors is given as “renal inflammation”. Moreover, the “biodistribution, organs of accumulation” value in data set [1] was “primarily accumulated in the liver and kidney”. For the same compound, the “molar ratio of tubulin to compound” value with tubulin (ITC) turned out to be 1.6. In addition, the “Gibbs free energy change (ΔG)” value in the data set with tubulin (5% DMSO, 4 °C) was −26.8 kJ·mol^–1. Also, the “total release of PTP” value in data set [2] (PBS pH 7.4, 37 °C) came to 40.6%. In data set [2] (PBS pH 7.4, 37 °C (data not shown)), this compound gave an average release rate of 17.5 μg·h^–1.
